Experimental data taken from ChEMBL document CHEMBL1681651, “A broad spectrum anticancer nucleoside with selective toxicity against human colon cells in vitro” (2011).

Experiments:
Assay type in all cases: functional
[1] = test system: HCC 2998; test: Growth inhibition of human HCC2998 cells after 48 hrs by […] growth inhibition assay; settings: HCC 2998, 48 h
[2] = test system: OVCAR-3; test: Growth inhibition of human OVCAR3 cells assessed as cell growth at 1 mM after 48 hrs by SRB assay; settings: OVCAR-3, 48 h, read-out: Activity
[3] = test system: A498; test: Growth inhibition of human A498 cells assessed as cell growth at 1 uM after 48 hrs by SRB assay; settings: A498, 48 h, read-out: Activity
[4] = test system: Malme-3M; test: Growth inhibition of human MALME-3M cells assessed as cell growth at 1 uM after 48 hrs by SRB assay; settings: read-out: Activity
[5] = test system: NCI-H460; test: Growth inhibition of human NCI-H460 cells assessed as cell growth at 100 uM after 48 hrs by SRB assay; settings: NCI-H460, 48 h, read-out: Activity
[6] = test system: OVCAR-5; test: Growth inhibition of human OVCAR5 cells assessed as cell growth at 100 uM after 48 hrs by SRB assay; settings: OVCAR-5, 48 h, read-out: Activity
[7] = test system: CAKI-1; test: Growth inhibition of human Caki1 cells assessed as cell growth at 1 mM after 48 hrs by SRB assay; settings: CAKI-1, 48 h, read-out: Activity
[8] = test system: EKVX; test: Growth inhibition of human EKVX cells assessed as cell growth at 1 mM after 48 hrs by SRB assay; settings: read-out: Activity
[9] = test system: SK-MEL-2; test: Growth inhibition of human SK-MEL-2 cells assessed as cell growth at 100 uM after 48 hrs by SRB assay; settings: SK-MEL-2, 48 h, read-out: Activity
[10] = test system: SF-268; test: Growth inhibition of human SF268 cells assessed as cell growth at 1 uM after 48 hrs by SRB assay; settings: SF-268, 48 h, read-out: Activity
[11] = test system: SF-539; test: Growth inhibition of human SF539 cells assessed as cell growth at 10 uM after 48 hrs by SRB assay; settings: SF-539, 48 h, read-out: Activity
[12] = test system: HCT-116; test: Growth inhibition of human HCT116 cells assessed as cell growth at 10 uM after 48 hrs by SRB assay; settings: HCT-116, 48 h, read-out: Activity
[13] = test system: MDA-MB-231; test: Growth inhibition of human MDA-MB-231 cells after 48 hrs by […] growth inhibition assay; settings: MDA-MB-231, 48 h
[14] = test system: UACC-62; test: Growth inhibition of human UACC62 cells after 48 hrs by […] growth inhibition assay; settings: UACC-62, 48 h
[15] = test system: CAKI-1; test: Growth inhibition of human Caki1 cells assessed as cell growth at 10 uM after 48 hrs by SRB assay; settings: CAKI-1, 48 h, read-out: Activity
[16] = test system: RXF 393; test: Growth inhibition of human RXF393 cells assessed as cell growth at 10 uM after 48 hrs by SRB assay; settings: RXF 393, 48 h, read-out: Activity
[17] = test system: OVCAR-3; test: Growth inhibition of human OVCAR3 cells assessed as cell growth at 10 uM after 48 hrs by SRB assay; settings: OVCAR-3, 48 h, read-out: Activity
[18] = test system: UACC-257; test: Growth inhibition of human UACC257 cells after 48 hrs by […] growth inhibition assay; settings: UACC-257, 48 h
[19] = test system: Malme-3M; test: Growth inhibition of human MALME-3M cells after 48 hrs by […] growth inhibition assay
[20] = test system: A549; test: Growth inhibition of human A549 cells assessed as cell growth at 100 uM after 48 hrs by SRB assay; settings: A549, 48 h, read-out: Activity
[21] = test system: SF-539; test: Growth inhibition of human SF539 cells assessed as cell growth at 1 uM after 48 hrs by SRB assay; settings: SF-539, 48 h, read-out: Activity
[22] = test system: SK-OV-3; test: Growth inhibition of human SKOV3 cells assessed as cell growth at 0.1 uM after 48 hrs by SRB assay; settings: SK-OV-3, 48 h, read-out: Activity
[23] = test system: NCI-H322M; test: Growth inhibition of human NCI-H322M cells assessed as cell growth at 1 uM after 48 hrs by SRB assay; settings: read-out: Activity
[24] = test system: SK-MEL-2; test: Growth inhibition of human SK-MEL-2 cells assessed as cell growth at 1 mM after 48 hrs by SRB assay; settings: SK-MEL-2, 48 h, read-out: Activity
[25] = test system: NCI-H23; test: Growth inhibition of human NCI-H23 cells assessed as cell growth at 0.1 uM after 48 hrs by SRB assay; settings: NCI-H23, 48 h, read-out: Activity
[26] = test system: SF-268; test: Growth inhibition of human SF268 cells assessed as cell growth at 0.1 uM after 48 hrs by SRB assay; settings: SF-268, 48 h, read-out: Activity
[27] = test system: HOP-62; test: Growth inhibition of human HOP62 cells assessed as cell growth at 1 mM after 48 hrs by SRB assay; settings: HOP-62, 48 h, read-out: Activity
[28] = test system: KM12; test: Growth inhibition of human KM12 cells after 48 hrs by […] growth inhibition assay; settings: KM12, 48 h
[29] = test system: HCT-15; test: Growth inhibition of human HCT15 cells assessed as cell growth at 1 uM after 48 hrs by SRB assay; settings: HCT-15, 48 h, read-out: Activity
[30] = test system: LOX IMVI; test: Growth inhibition of human LOXIMVI cells after 48 hrs by […] growth inhibition assay
[31] = test system: MDA-MB-231; test: Growth inhibition of human MDA-MB-231 cells assessed as cell growth at 100 uM after 48 hrs by SRB assay; settings: MDA-MB-231, 48 h, read-out: Activity
[32] = test system: CCRF-CEM; test: Growth inhibition of human CCRF-CEM cells assessed as cell growth at 1 mM after 48 hrs by SRB assay; settings: read-out: Activity
[33] = test system: MDA-MB-231; test: Growth inhibition of human MDA-MB-231 cells assessed as cell growth at 10 uM after 48 hrs by SRB assay; settings: MDA-MB-231, 48 h, read-out: Activity
[34] = read-out: LC50 (the source's name)
[35] = read-out: pLC50 (the source's name) (converted)

Question: For `CNC(=O)NC[C@H]1O[C@@H](n2cnc3c(NC(=O)Nc4ccccc4)ncnc32)[C@H](O[Si](C)(C)C(C)(C)C)[C@@H]1O[Si](C)(C)C(C)(C)C`, which GI50 ([1]; read-out: GI50) is on record?
Answer: 2.02 µM

Question: And the CC50 [1, 34]?
Answer: 6.99 µM

Question: What about the TGI ([1]; read-out: TGI) of the same molecule?
Answer: 3.75 µM

Question: What about the GI50 ([1]; read-out: pGI50 (converted)) of the same molecule?
Answer: 2 µM

Question: And the CC50 [1, 35]?
Answer: 6.92 µM

Question: What about the TGI ([1]; read-out: pTGI (converted)) of the same molecule?
Answer: 3.72 µM

Question: What about the growth at 1000 µM [2] of the same molecule?
Answer: -50%

Question: What about the growth at 1 µM [3] of the same molecule?
Answer: 97%

Question: And the growth at 1 µM [4]?
Answer: 98%

Question: And the growth at 100 µM [5]?
Answer: -74%

Question: And the growth at 100 µM [6]?
Answer: 29%

Question: And the growth at 1000 µM [7]?
Answer: -33%

Question: And the growth at 1000 µM [8]?
Answer: -9%

Question: What about the growth at 100 µM [9] of the same molecule?
Answer: -36%

Question: What about the growth at 1 µM [10] of the same molecule?
Answer: 106%

Question: And the growth at 10 µM [11]?
Answer: 91%

Question: What about the growth at 10 µM [12] of the same molecule?
Answer: 102%

Question: What about the GI50 ([13]; read-out: GI50) of the same molecule?
Answer: 2.61 µM

Question: What about the CC50 [13, 34] of the same molecule?
Answer: 28.3 µM

Question: And the TGI ([13]; read-out: TGI)?
Answer: 6.12 µM

Question: And the GI50 ([13]; read-out: pGI50 (converted))?
Answer: 2.63 µM

Question: And the CC50 [13, 35]?
Answer: 28.2 µM

Question: And the TGI ([13]; read-out: pTGI (converted))?
Answer: 6.17 µM

Question: And the GI50 ([14]; read-out: GI50)?
Answer: 3.98 µM

Question: What about the CC50 [14, 34] of the same molecule?
Answer: > 100 µM

Question: And the TGI ([14]; read-out: TGI)?
Answer: 23.6 µM

Question: What about the GI50 ([14]; read-out: pGI50 (converted)) of the same molecule?
Answer: 3.98 µM

Question: And the CC50 [14, 35]?
Answer: > 100 µM

Question: And the TGI ([14]; read-out: pTGI (converted))?
Answer: 23.4 µM

Question: And the growth at 10 µM [15]?
Answer: 96%

Question: What about the growth at 10 µM [16] of the same molecule?
Answer: 111%

Question: And the growth at 10 µM [17]?
Answer: 113%

Question: What about the GI50 ([18]; read-out: GI50) of the same molecule?
Answer: 3.78 µM

Question: And the CC50 [18, 34]?
Answer: > 100 µM

Question: And the TGI ([18]; read-out: TGI)?
Answer: 20.2 µM

Question: What about the GI50 ([18]; read-out: pGI50 (converted)) of the same molecule?
Answer: 3.8 µM

Question: And the CC50 [18, 35]?
Answer: > 100 µM

Question: And the TGI ([18]; read-out: pTGI (converted))?
Answer: 20 µM

Question: And the GI50 ([19]; read-out: GI50)?
Answer: 2.98 µM

Question: What about the LC50 (concentration killing 50% of cells) ([19]; read-out: LC50) of the same molecule?
Answer: > 100 µM

Question: What about the TGI ([19]; read-out: TGI) of the same molecule?
Answer: 9.84 µM

Question: What about the GI50 ([19]; read-out: pGI50 (converted)) of the same molecule?
Answer: 2.95 µM

Question: What about the LC50 (concentration killing 50% of cells) ([19]; read-out: pLC50 (converted)) of the same molecule?
Answer: > 100 µM

Question: And the TGI ([19]; read-out: pTGI (converted))?
Answer: 9.77 µM

Question: And the growth at 100 µM [20]?
Answer: 4%

Question: What about the growth at 1 µM [21] of the same molecule?
Answer: 100%

Question: What about the growth at 0.1 µM [22] of the same molecule?
Answer: 108%

Question: What about the growth at 1 µM [23] of the same molecule?
Answer: 106%

Question: And the growth at 1000 µM [24]?
Answer: -67%

Question: And the growth at 0.1 µM [25]?
Answer: 100%

Question: And the growth at 0.1 µM [26]?
Answer: 104%

Question: And the growth at 1000 µM [27]?
Answer: -86%

Question: What about the GI50 ([28]; read-out: GI50) of the same molecule?
Answer: 2.13 µM

Question: What about the CC50 [28, 34] of the same molecule?
Answer: 8.05 µM

Question: What about the TGI ([28]; read-out: TGI) of the same molecule?
Answer: 4.14 µM

Question: What about the GI50 ([28]; read-out: pGI50 (converted)) of the same molecule?
Answer: 2.14 µM

Question: And the CC50 [28, 35]?
Answer: 8.13 µM

Question: And the TGI ([28]; read-out: pTGI (converted))?
Answer: 4.17 µM

Question: And the growth at 1 µM [29]?
Answer: 106%

Question: What about the GI50 ([30]; read-out: GI50) of the same molecule?
Answer: 1.82 µM

Question: What about the CC50 [30, 34] of the same molecule?
Answer: 6.21 µM

Question: What about the TGI ([30]; read-out: TGI) of the same molecule?
Answer: 3.36 µM

Question: What about the GI50 ([30]; read-out: pGI50 (converted)) of the same molecule?
Answer: 1.82 µM

Question: And the CC50 [30, 35]?
Answer: 6.17 µM

Question: What about the TGI ([30]; read-out: pTGI (converted)) of the same molecule?
Answer: 3.39 µM

Question: What about the growth at 100 µM [31] of the same molecule?
Answer: -29%

Question: What about the growth at 1000 µM [32] of the same molecule?
Answer: 4%

Question: What about the growth at 10 µM [33] of the same molecule?
Answer: 106%
